# Measurements reported in patent publication US9012443B2 (Amgen Inc., priority 2011, dated 2015).
# Structures can show the parent of a compound that is named as a salt.
# Target: T1, Nav 1.7 (Homo sapiens (Human), UniProt Q15858)
# Test: Nav 1.7 IWQ in vitro assay (IonWorks Quattro population patch-clamp)
# Format: cell-based
# Conditions: 293 cells stably transfected with Nav 1.7; first part of table; read-out: Nav 1.7 IWQ IC50
# Procedure: Nav 1.7 or Nav 1.5 IWQ In Vitro Assay
# 293 Cells stably transfected with either Nav 1.7 or Nav 1.5 were recorded in population patch-clamp mode with the IonWorks® Quattro automated electrophysiology system in accordance with the manufacturer's specifications (Molecular Devices, LLC, Sunnyvale, Calif.). Sodium channel currents were measured in response to a train of depolarizations that induced successively greater inactivation.
# Cells were then left unclamped for a period of 3 to 8 minutes while a single concentration of test compound was added. Cells were then reclamped and put through the same voltage protocol. Current at the end of the 26th pulse to −20 mV was subtracted from the peak current evoked by the 26th pulse to −20 mV to correct for leak current. Percent block was calculated for each concentration in duplicate, and IC50 curves were fitted to percent block as a function of concentration.
# T1 sequence (Q15858 whole entry): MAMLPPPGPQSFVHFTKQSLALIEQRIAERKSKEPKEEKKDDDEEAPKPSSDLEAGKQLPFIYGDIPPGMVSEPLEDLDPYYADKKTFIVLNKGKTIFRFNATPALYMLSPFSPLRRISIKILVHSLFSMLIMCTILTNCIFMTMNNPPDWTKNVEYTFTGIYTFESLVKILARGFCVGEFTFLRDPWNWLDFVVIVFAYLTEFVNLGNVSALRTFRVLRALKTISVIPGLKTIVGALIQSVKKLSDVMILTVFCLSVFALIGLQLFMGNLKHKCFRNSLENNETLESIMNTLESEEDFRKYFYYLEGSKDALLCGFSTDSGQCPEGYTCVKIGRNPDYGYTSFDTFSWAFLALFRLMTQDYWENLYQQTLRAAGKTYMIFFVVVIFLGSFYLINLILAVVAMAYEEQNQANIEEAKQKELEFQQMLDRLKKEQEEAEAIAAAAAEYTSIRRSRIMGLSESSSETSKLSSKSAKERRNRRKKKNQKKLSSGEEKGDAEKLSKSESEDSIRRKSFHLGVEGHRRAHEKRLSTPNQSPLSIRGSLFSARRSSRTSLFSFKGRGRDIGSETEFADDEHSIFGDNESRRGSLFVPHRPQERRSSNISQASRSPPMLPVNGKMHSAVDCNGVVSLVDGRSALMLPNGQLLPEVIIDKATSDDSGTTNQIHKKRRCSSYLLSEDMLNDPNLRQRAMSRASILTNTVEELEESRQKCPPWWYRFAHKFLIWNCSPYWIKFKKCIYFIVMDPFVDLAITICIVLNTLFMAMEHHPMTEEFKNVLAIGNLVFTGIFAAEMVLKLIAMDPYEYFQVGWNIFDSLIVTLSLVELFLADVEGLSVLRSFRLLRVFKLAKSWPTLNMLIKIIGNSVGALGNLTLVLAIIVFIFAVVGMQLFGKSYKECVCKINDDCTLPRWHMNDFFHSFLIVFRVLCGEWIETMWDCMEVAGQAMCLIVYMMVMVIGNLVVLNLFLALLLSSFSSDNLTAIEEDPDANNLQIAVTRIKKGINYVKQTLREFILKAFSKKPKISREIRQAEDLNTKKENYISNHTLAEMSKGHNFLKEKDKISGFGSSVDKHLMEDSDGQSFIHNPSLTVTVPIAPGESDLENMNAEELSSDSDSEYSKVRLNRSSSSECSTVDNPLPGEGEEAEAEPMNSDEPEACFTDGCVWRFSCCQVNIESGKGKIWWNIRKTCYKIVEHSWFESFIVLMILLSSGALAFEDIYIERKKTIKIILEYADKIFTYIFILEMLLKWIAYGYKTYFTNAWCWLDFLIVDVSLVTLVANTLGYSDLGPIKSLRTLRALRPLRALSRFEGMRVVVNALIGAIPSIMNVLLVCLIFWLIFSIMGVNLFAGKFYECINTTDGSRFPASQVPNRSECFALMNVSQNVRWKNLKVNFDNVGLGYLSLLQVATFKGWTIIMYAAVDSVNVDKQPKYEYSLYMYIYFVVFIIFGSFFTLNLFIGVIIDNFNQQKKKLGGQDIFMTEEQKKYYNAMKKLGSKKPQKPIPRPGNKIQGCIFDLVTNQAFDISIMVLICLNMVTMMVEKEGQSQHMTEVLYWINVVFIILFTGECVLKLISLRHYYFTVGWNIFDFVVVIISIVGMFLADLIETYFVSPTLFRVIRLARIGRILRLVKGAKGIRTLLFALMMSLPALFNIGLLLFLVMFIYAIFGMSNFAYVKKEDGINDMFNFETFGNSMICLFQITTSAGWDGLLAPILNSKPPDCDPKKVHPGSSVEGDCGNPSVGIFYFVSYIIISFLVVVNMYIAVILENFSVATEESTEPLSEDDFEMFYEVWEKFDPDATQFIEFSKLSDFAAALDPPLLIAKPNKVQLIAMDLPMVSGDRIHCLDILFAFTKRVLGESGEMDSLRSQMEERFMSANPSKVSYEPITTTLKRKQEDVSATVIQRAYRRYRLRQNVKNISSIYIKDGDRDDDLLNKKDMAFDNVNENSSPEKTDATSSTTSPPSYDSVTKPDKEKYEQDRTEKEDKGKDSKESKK
row,Structure (SMILES),IC50
1,O=S(=O)(Nc1ncco1)c1ccc2c(-c3ccc(C(F)(F)F)cc3Cl)cccc2c1 [Example 49],4.87 µM
2,COc1cc(Cl)ccc1-c1cccc2cc(S(=O)(=O)Nc3nccs3)ccc12 [Example 46],0.036 µM

# Same assay, conditions: at […]
row,Structure (SMILES),Nav1.7 Single Point Data IWQ (at […]) (%)
1,"Cc1cnc(OC2CCCN(C)C2)c(-c2nccc3cc(S(=O)(=O)Nc4ccncn4)ccc23)c1 (centres unmarked) [Example 383, 1-(5-METHYL-2-((1-METHYLPIPERIDIN-3-YL)OXY)PYRIDIN-3-YL)-N-(PYRIMIDIN-4-YL)ISOQUINOLINE-6-SULFONAMIDE]",30.2%
2,"COc1cc(C(F)(F)F)ccc1-c1nccc2cc(S(=O)(=O)Nc3cnncn3)ccc12 [Example 391, 1-(2-METHOXY-4-(TRIFLUOROMETHYL)PHENYL)-N-(1,2,4-TRIAZIN-5-YL)ISOQUINOLINE-6-SULFONAMIDE]",34.8%
3,"O=S(=O)(Nc1nccs1)c1ccc2c(N3CCCC3c3ccccc3)ncnc2c1 (centres unmarked) [Example 537, 4-(2-PHENYLPYRROLIDIN-1-YL)-N-(THIAZOL-2-YL)QUINAZOLINE-7-SULFONAMIDE]",41.2%
4,"COc1cc(C(F)(F)F)ccc1-c1ncnc2cc(S(=O)(=O)NC3=NCCS3)ccc12 [Example 520, N-(4,5-DIHYDROTHIAZOL-2-YL)-4-(2-METHOXY-4-(TRIFLUOROMETHYL)PHENYL)QUINAZOLINE-7-SULFONAMIDE]",<20%
5,"O=S(=O)(Nc1nccs1)c1ccc2c(N3CCCCC3c3ccccc3)ncnc2c1 (centres unmarked) [Example 538, 4-(2-PHENYLPIPERIDIN-1-YL)-N-(THIAZOL-2-YL)QUINAZOLINE-7-SULFONAMIDE]",31.2%
6,"O=S(=O)(Nc1nccs1)c1ccc2c(N3CCN(c4ccc(Cl)c(Cl)c4)CC3)nccc2c1 [Example 247, 1-(4-(3,4-DICHLOROPHENYL)PIPERAZIN-1-YL)-N-(THIAZOL-2-YL)ISOQUINOLINE-6-SULFONAMIDE]",35%

# Target: T1, Nav 1.7
# Test: Nav 1.7 in vitro PX assay (PatchXpress whole cell voltage clamp)
# Format: cell-based
# Conditions: 293 cells, human Nav1.7, partially inactivated state; read-out: Nav1.7 PX IC50 IP
# Procedure: Nav 1.7 In Vitro PX Assay
# 293 cells stably transfected with human Nav1.7 were recorded in whole cell voltage clamp mode with the PatchXpress automated electrophysiology system (Molecular Devices, LLC, Sunnyvale, Calif.). Compound effects were measured on a partially inactivated state of the sodium channel. Cells were clamped to a holding potential yielding 20 to 50% inactivation. To elicit sodium current, channels were activated by pulsing to −10 mV for 20 msec. […] A single concentration of test compound was applied to cells for a duration of 3 minutes. Peak sodium current was measured at the end of the compound addition period to determine percent inhibition. Three to five cells were tested per concentration, and IC50 curves were fitted to percent inhibition as a function of concentration.
row,Structure (SMILES),IC50
1,"O=S(=O)(Nc1nccs1)c1ccc2c(-c3ccc(F)cc3Oc3ccccn3)nccc2c1 [Example 191, 1-(4-FLUORO-2-(PYRIDIN-2-YLOXY)PHENYL)-N-(THIAZOL-2-YL)ISOQUINOLINE-6-SULFONAMIDE]",13.9 µM
2,"O=S(=O)(Nc1nccs1)c1ccc2c(-c3ccc(C(F)(F)F)cc3O)ncnc2c1 [Example 533, 4-(2-HYDROXY-4-(TRIFLUOROMETHYL)PHENYL)-N-(THIAZOL-2-YL)QUINAZOLINE-7-SULFONAMIDE]",4.09 µM
3,"O=S(=O)(Nc1ncns1)c1ccc2c(N3CCC[C@H]3c3cccnc3)cccc2c1 (single isomer, unassigned) [Example 86]",0.0627 µM
4,"O=S(=O)(Nc1nccs1)c1ccc2c(-c3ccccc3Cl)nccc2c1 [Example 179, 1-(2-CHLOROPHENYL)-N-(THIAZOL-2-YL)ISOQUINOLINE-6-SULFONAMIDE]",1.3 µM
5,"COc1cc(-c2cncc(C)c2)ccc1-c1nccc2cc(S(=O)(=O)Nc3ccncn3)ccc12 [Example 478, 1-(2-METHOXY-4-(5-METHYLPYRIDIN-3-YL)PHENYL)-N-(PYRIMIDIN-4-YL)ISOQUINOLINE-6-SULFONAMIDE]",3.64 µM
6,"COc1cc(-c2cnc(F)c(C)c2)ccc1-c1nccc2cc(S(=O)(=O)Nc3ccncn3)ccc12 [Example 481, 1-(4-(6-FLUORO-5-METHYLPYRIDIN-3-YL)-2-METHOXYPHENYL)-N-(PYRIMIDIN-4-YL)ISOQUINOLINE-6-SULFONAMIDE]",0.788 µM
7,"COc1ccccc1-c1cncc2cc(S(=O)(=O)Nc3ccncn3)ccc12 [Example 287, 4-(2-METHOXYPHENYL)-N-(PYRIMIDIN-4-YL)ISOQUINOLINE-7-SULFONAMIDE HYDROCHLORIDE]",4.15 µM
8,"COc1cc(C(F)(F)F)ccc1-c1ccnc2cc(S(=O)(=O)Nc3ccncn3)ccc12 [Example 279, 4-(2-METHOXY-4-(TRIFLUOROMETHYL)PHENYL)-N-(PYRIMIDIN-4-YL)QUINOLINE-7-SULFONAMIDE]",0.58 µM
9,"NC(=O)COc1cc(F)ccc1-c1nccc2cc(S(=O)(=O)Nc3nccs3)ccc12 [Example 417, 2-(5-FLUORO-2-(6-(N-(THIAZOL-2-YL)SULFAMOYL)ISOQUINOLIN-1-YL)PHENOXY)ACETAMIDE]",1.23 µM
10,"COc1cc(F)ccc1-c1ncc(O)c2cc(S(=O)(=O)Nc3nccs3)ccc12 [Example 233, 1-(4-FLUORO-2-METHOXYPHENYL)-4-HYDROXY-N-(THIAZOL-2-YL)ISOQUINOLINE-6-SULFONAMIDE 2,2,2-TRIFLUOROACETATE]",0.51 µM
11,"COc1cc(C(F)(F)F)ccc1-c1ccnc2cc(S(=O)(=O)Nc3nccs3)cc(C)c12 [Example 282, 4-(2-METHOXY-4-(TRIFLUOROMETHYL)PHENYL)-5-METHYL-N-(THIAZOL-2-YL)QUINOLINE-7-SULFONAMIDE]",3.29 µM
12,"COc1cc(C(F)(F)F)ccc1-c1cnnc2cc(S(=O)(=O)Nc3ccncn3)ccc12 [Example 260, 4-(2-METHOXY-4-(TRIFLUOROMETHYL)PHENYL)-N-(PYRIMIDIN-4-YL)CINNOLINE-7-SULFONAMIDE]",1.27 µM
13,"COc1cc(Cl)ccc1-c1ncnc2cc(S(=O)(=O)Nc3ccncn3)ccc12 [Example 526, 4-(4-CHLORO-2-METHOXYPHENYL)-N-(PYRIMIDIN-4-YL)QUINAZOLINE-7-SULFONAMIDE]",2.3 µM

# The remaining lines, values ahead:
row,IC50,Structure (SMILES)
1,7.11 µM,"O=S(=O)(Nc1nccs1)c1ccc2c(-c3ccc(F)cc3OC3CCOCC3)nccc2c1 [Example 414, 1-(4-FLUORO-2-((TETRAHYDRO-2H-PYRAN-4-YL)OXY)PHENYL)-N-(THIAZOL-2-YL)ISOQUINOLINE-6-SULFONAMIDE]"
2,29.3 µM,"COC[C@H]1CCCN1c1ncnc2cc(S(=O)(=O)Nc3nccs3)ccc12 [Example 534, (R)-4-(2-(METHOXYMETHYL)PYRROLIDIN-1-YL)-N-(THIAZOL-2-YL)QUINAZOLINE-7-SULFONAMIDE]"
3,4.97 µM,"COc1ncccc1-c1nccc2cc(S(=O)(=O)Nc3nccs3)ccc12 [Example 407, 1-(2-METHOXYPYRIDIN-3-YL)-N-(THIAZOL-2-YL)ISOQUINOLINE-6-SULFONAMIDE]"
4,1.66 µM,"COc1cc(C(F)(F)F)ccc1-c1nccc2cc(S(=O)(=O)Nc3nc(C)cs3)ccc12 [Example 424, 1-(2-METHOXY-4-(TRIFLUOROMETHYL)PHENYL)-N-(4-METHYLTHIAZOL-2-YL)ISOQUINOLINE-6-SULFONAMIDE]"
5,1.07 µM,"COc1cc(OCC(F)(F)F)ccc1-c1nccc2cc(S(=O)(=O)Nc3ccncn3)ccc12 [Example 362, 1-(2-METHOXY-4-(2,2,2-TRIFLUOROETHOXY)PHENYL)-N-(PYRIMIDIN-4-YL)ISOQUINOLINE-6-SULFONAMIDE]"
6,1.4 µM,"COc1ccc(-c2ccc(-c3nccc4cc(S(=O)(=O)Nc5ccncn5)ccc34)c(OC)c2)cn1 [Example 483, 1-(2-METHOXY-4-(6-METHOXYPYRIDIN-3-YL)PHENYL)-N-(PYRIMIDIN-4-YL)ISOQUINOLINE-6-SULFONAMIDE]"
7,1.85 µM,Cc1cc(Cl)ccc1-c1nccc2cc(S(=O)(=O)Nc3ccncn3)ccc12 [Example 357]
8,2.49 µM,COc1cc(C(F)(F)F)ccc1-c1nccc2cc(S(=O)(=O)Nc3ncc(F)cn3)ccc12 [Example 426]
9,4.56 µM,"COc1cc(C(F)(F)F)ccc1-c1nc(=O)[nH]c2cc(S(=O)(=O)Nc3nccs3)ccc12 [Example 543, 4-(2-METHOXY-4-(TRIFLUOROMETHYL)PHENYL)-2-OXO-N-(THIAZOL-2-YL)-1,2-DIHYDROQUINAZOLINE-7-SULFONAMIDE]"
10,1.87 µM,"COc1cc(-c2ccc(F)nc2)ccc1-c1nccc2cc(S(=O)(=O)Nc3ccncn3)ccc12 [Example 352, 1-(4-(6-FLUOROPYRIDIN-3-YL)-2-METHOXYPHENYL)-N-(PYRIMIDIN-4-YL)ISOQUINOLINE-6-SULFONAMIDE]"
11,1.3 µM,"COc1ccccc1-c1n[nH]c(=O)c2cc(S(=O)(=O)Nc3ncns3)ccc12 [Example 508, 1-(2-METHOXYPHENYL)-4-OXO-N-(1,2,4-THIADIAZOL-5-YL)-3,4-DIHYDROPHTHALAZINE-6-SULFONAMIDE]"
12,2.38 µM,Cc1cc(C#N)ccc1-c1nccc2cc(S(=O)(=O)Nc3ncns3)ccc12 [Example 359]
13,1.34 µM,COc1cc(C(F)(F)F)ccc1-c1nccc2cc(S(=O)(=O)Nc3ccon3)ccc12 [Example 423]
14,0.904 µM,"COc1cc(-c2ccc(C#N)cc2)ccc1-c1nccc2cc(S(=O)(=O)Nc3ccncn3)ccc12 [Example 455, 1-(4′-CYANO-3-METHOXY-[1,1′-BIPHENYL]-4-YL)-N-(PYRIMIDIN-4-YL)ISOQUINOLINE-6-SULFONAMIDE]"
15,4.1 µM,"COc1cc(C(F)(F)F)ccc1-c1nccc2cc(S(=O)(=O)Nc3cocn3)ccc12 [Example 440, 1-(2-METHOXY-4-(TRIFLUOROMETHYL)PHENYL)-N-(OXAZOL-4-YL)ISOQUINOLINE-6-SULFONAMIDE]"
16,3.52 µM,"N#Cc1ccccc1-c1ncc(F)c2cc(S(=O)(=O)Nc3nccs3)ccc12 [Example 397, 1-(2-CYANOPHENYL)-4-FLUORO-N-(THIAZOL-2-YL)ISOQUINOLINE-6-SULFONAMIDE]"
17,1.05 µM,"COc1cc(C2(F)COC2)ccc1-c1nc(C)nc2cc(S(=O)(=O)Nc3nccs3)ccc12 [Example 516, 4-(4-(3-FLUOROOXETAN-3-YL)-2-METHOXYPHENYL)-2-METHYL-N-(THIAZOL-2-YL)QUINAZOLINE-7-SULFONAMIDE]"
